According to US7812035B2, “4-substituted piperidines, and methods of use thereof” (Sepracor Inc., priority 2001, dated 2010):
Read-outs that look alike come from different tables or passages of the source.

Columns and labels:
Type in all cases: cell-based
[1] = molecular target: norepinephrine transporter (Homo sapiens, UniProt P23975); experiment: NE uptake inhibition (monoamine transporter antagonism, methods of Galli et al); details: read-out: NE uptake (% inhibition @1 μM)
dopamine transporter = experiment: DA uptake inhibition (monoamine transporter antagonism, methods of Gu et al); details: 1 μM compound
serotonin transporter = serotonin transporter (UniProt P31645); experiment: 5-HT uptake inhibition (monoamine transporter antagonism, methods of Gu et al); details: 1 μM compound

norepinephrine transporter, sequence (P23975 whole entry): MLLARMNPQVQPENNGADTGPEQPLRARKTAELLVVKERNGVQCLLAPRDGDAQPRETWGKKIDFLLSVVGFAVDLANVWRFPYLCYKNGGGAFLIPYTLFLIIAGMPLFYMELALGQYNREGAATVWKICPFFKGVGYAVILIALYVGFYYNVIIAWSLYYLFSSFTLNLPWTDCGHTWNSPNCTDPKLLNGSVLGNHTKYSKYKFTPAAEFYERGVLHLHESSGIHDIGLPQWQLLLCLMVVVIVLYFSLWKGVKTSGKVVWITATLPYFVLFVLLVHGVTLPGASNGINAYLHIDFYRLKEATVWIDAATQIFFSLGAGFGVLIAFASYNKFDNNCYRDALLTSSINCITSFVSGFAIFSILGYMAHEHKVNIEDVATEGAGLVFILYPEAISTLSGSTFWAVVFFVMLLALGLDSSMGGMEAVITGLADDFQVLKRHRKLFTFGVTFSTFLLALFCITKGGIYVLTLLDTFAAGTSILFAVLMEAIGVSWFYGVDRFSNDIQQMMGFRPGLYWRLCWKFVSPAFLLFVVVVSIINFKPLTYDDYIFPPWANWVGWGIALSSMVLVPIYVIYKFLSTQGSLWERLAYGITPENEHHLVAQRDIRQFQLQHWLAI

SMILES | inhibition at 1 µM [1] [%] | DA uptake (% inhibition @1 μM) (dopamine transporter) [%] | 5-HT uptake (% inhibition @1 μM) (serotonin transporter) [%] | inhibition at 1 µM ([1]; 1 μM compound) [%]
OC1CCN(CC2(c3ccc(Cl)cc3)CCC2)CC1 [Compound 2, 1-[1-(4-Chloro-phenyl)-cyclobutylmethyl]-piperidin-4-ol] | 65 | 88 | 36 | –
FC(F)(F)c1cc(COC2CCN(CC3(c4ccc(Cl)cc4)CCC3)CC2)cc(C(F)(F)F)c1 [Compound 5] | – | 61 | 14 | 85
FC(F)(F)c1ccc(COC2CCN(CC3(c4ccc(Cl)cc4)CCC3)CC2)cc1 [Compound 6, [1-(4-chloro-phenyl)-cyclobutylmethyl]-4-(4-trifluoromethyl-benzyloxy)-piperidine] | 78 | 85 | 9 | –
FC(F)(F)c1ccc(OC2CCN(CC3(c4ccc(Cl)cc4)CCC3)CC2)cc1 [Compound 8, 1-[1-(4-chloro-phenyl)-cyclobutylmethyl]-4-(4-trifluoromethal-phenoxy)-piperidine] | 38 | 25 | 56 | –
OCC1CCN(CC2(c3ccc(Cl)cc3)CCC2)CC1 [Compound 10, {1-[1-(4-chloro-phenyl)-cyclobuylmethyl]-piperidin-4-yl}-methanol] | 62 | 70 | 21 | –
FC(F)(F)c1ccc(COCC2CCN(CC3(c4ccc(Cl)cc4)CCC3)CC2)cc1 [Compound 11] | – | 97 | 87 | 97
FC(F)(F)c1ccc(OCC2CCN(CC3(c4ccc(Cl)cc4)CCC3)CC2)cc1 [Compound 13, 1-[1-(4-Chloro-Phenyl)-Cyclobutylmethyl]-4-(4-Trifluoromethyl-Phenoxymethyl)-Piperidine] | 97 | 94 | 83 | –
